According to patent publication US8258114B2, “Modulation of glucose-6-phosphatase translocase expression” (Isis Pharmaceuticals, Inc., priority 2004, dated 2012):
Oligonucleotides are written 5' to 3', each unit as a sugar letter and its base; * is a phosphorothioate linkage, no mark a phosphodiester; rarer units and linkages stand in square brackets, end groups in braces. Plain capitals give the bases only. e = 2'-O-(2-methoxyethyl) (MOE); [5mC] = 5-methylcytosine; d = 2'-deoxy (DNA)

System: mouse glucose-6-phosphatase translocase mRNA
Test: Antisense inhibition of mouse glucose-6-phosphatase translocase mRNA in primary mouse hepatocytes, 150 nM, LIPOFECTIN (Table 22)
Type: cell-based
Details: real-time PCR
Protocol: Primary mouse hepatocytes were prepared from CD-1 mice purchased from Charles River Labs. Primary mouse hepatocytes were routinely cultured in Hepatocyte Attachment Media supplemented with 10% fetal bovine serum (Invitrogen Life Technologies, Carlsbad, Calif.), 250 nM dexamethasone, and 10 nM bovine insulin (Sigma-Aldrich, St. Louis, Mo.). Cells were seeded into 96-well plates (Falcon-Primaria #353872, BD Biosciences, Bedford, Mass.) at a density of approximately 4,000-6,000 cells/well for use in oligomeric compound transfection experiments.
When cells reached 65-75% confluency, they were treated with oligonucleotide. Oligonucleotide was mixed with LIPOFECTIN™ Invitrogen Life Technologies, Carlsbad, Calif.) in Opti-MEM™-1 reduced serum medium (Invitrogen Life Technologies, Carlsbad, Calif.) to achieve the desired concentration of oligonucleotide and a LIPOFECTIN™ concentration of 2.5 or 3 μg/mL per 100 nM oligonucleotide. This transfection mixture was incubated at room temperature for approximately 0.5 hours. For cells grown in 96-well plates, wells were washed once with 100 μL OPTI-MEM™-1 and then treated with 130 μL of the transfection mixture. Cells grown in 24-well plates or other standard tissue culture plates are treated similarly, using appropriate volumes of medium and oligonucleotide. Cells are treated and data are obtained in duplicate or triplicate. After approximately 4-7 hours of treatment at 37° C., the medium containing the transfection mixture was replaced with fresh culture medium. Cells were harvested 16-24 hours after oligonucleotide treatment.
Quantitation of glucose 6-phosphatase translocase mRNA levels was accomplished by real-time quantitative PCR using the ABI PRISM™ 7600, 7700, or 7900 Sequence Detection System (PE-Applied Biosystems, Foster City, Calif.) according to manufacturer's instructions.
Prior to quantitative PCR analysis, primer-probe sets specific to the target gene being measured were evaluated for their ability to be “multiplexed” with a GAPDH amplification reaction. After isolation the RNA is subjected to sequential reverse transcriptase (RT) reaction and real-time PCR, both of which are performed in the same well. RT and PCR reagents were obtained from Invitrogen Life Technologies (Carlsbad, Calif.). […] The RT reaction was carried out by incubation for 30 minutes at 48° C. Following a 10 minute incubation at 95° C. to activate the PLATINUM® Taq, 40 cycles of a two-step PCR protocol were carried out: 95° C. for 15 seconds (denaturation) followed by 60° C. for 1.5 minutes (annealing/extension).
Gene target quantities obtained by RT, real-time PCR were normalized using either the expression level of GAPDH, a gene whose expression is constant, or by quantifying total RNA using RiboGreen™ (Molecular Probes, Inc. Eugene, Oreg.). GAPDH expression was quantified by RT, real-time PCR, by being run simultaneously with the target, multiplexing, or separately. Total RNA was quantified using RiboGreen™ RNA quantification reagent (Molecular Probes, Inc. Eugene, Oreg.).
A series of oligomeric compounds was designed to target different regions of mouse glucose-6-phosphatase translocase, using published sequences cited in Table 1. All compounds in Table 22 are chimeric oligonucleotides (“gapmers”) 20 nucleotides in length, composed of a central “gap” region consisting of 10 2′-deoxynucleotides, which is flanked on both sides (5′ and 3′) by five-nucleotide “wings”. The wings are composed of 2′-O-(2-methoxyethyl) nucleotides, also known as 2′-MOE nucleotides. The internucleoside (backbone) linkages are phosphorothioate throughout the oligonucleotide. All cytidine residues are 5-methylcytidines. The compounds were analyzed for their effect on gene target mRNA levels by quantitative real-time PCR as described in other examples herein, using the following primer-probe set designed to hybridize to mouse glucose-6-phosphatase translocase: • forward primer: […]

Row | Substance | % Inhib of mouse glucose-6-phosphatase translocase mRNA levels [%]
1 | 145647 (antisense e[5mC]*eT*e[5mC]*eT*eT*dG*dA*d[5mC]*dT*dG*d[5mC]*dT*d[5mC]*d[5mC]*dT*eG*e[5mC]*eT*eT*eG) [compound 145647] | 52
2 | 145648 (antisense e[5mC]*eT*eT*e[5mC]*eT*dG*dA*d[5mC]*d[5mC]*dA*d[5mC]*dA*dG*dA*d[5mC]*eT*e[5mC]*eT*eT*eG) [compound 145648] | 26
3 | 145649 (antisense eG*e[5mC]*e[5mC]*e[5mC]*eA*d[5mC]*dT*d[5mC]*d[5mC]*dA*dG*dT*dA*d[5mC]*dT*eT*e[5mC]*eT*eG*eA) [compound 145649] | 61
4 | 145650 (antisense eA*eA*eG*e[5mC]*eT*dG*dG*d[5mC]*d[5mC]*d[5mC]*dT*dG*d[5mC]*dT*dG*eG*e[5mC]*e[5mC]*e[5mC]*eA) [compound 145650] | 54
5 | 145651 (antisense eG*eT*eA*eG*eA*dA*dA*dA*dA*dG*d[5mC]*dT*dG*dG*d[5mC]*e[5mC]*e[5mC]*eT*eG*e[5mC]) [compound 145651] | 31
6 | 145653 (antisense eT*eT*eG*eG*eG*d[5mC]*dT*dG*d[5mC]*d[5mC]*dA*dT*dG*dG*dT*eA*eG*eA*eA*eA) [compound 145653] | 42
7 | 145654 (antisense eA*eG*eT*eG*e[5mC]*dG*dA*dT*dA*dG*dT*dA*dG*d[5mC]*d[5mC]*eG*eT*eA*eG*e[5mC]) [compound 145654] | 47
8 | 145655 (antisense eA*eA*e[5mC]*eA*eT*dG*dG*d[5mC]*d[5mC]*dG*d[5mC]*dA*dA*dA*dT*eA*eT*eG*eA*e[5mC]) [compound 145655] | 29
9 | 145656 (antisense eT*eA*e[5mC]*eA*eG*dG*d[5mC]*dT*dG*dT*dA*dG*d[5mC]*d[5mC]*dT*e[5mC]*e[5mC]*eA*eA*eA) [compound 145656] | 47
10 | 145658 (antisense eT*eG*eG*eT*e[5mC]*dT*dG*dA*d[5mC]*dA*dG*dA*dA*d[5mC]*d[5mC]*e[5mC]*e[5mC]*eG*e[5mC]*eT) [compound 145658] | 36
11 | 145659 (antisense e[5mC]*eG*e[5mC]*eT*e[5mC]*dA*dT*d[5mC]*dT*dG*dG*dT*d[5mC]*dT*dG*eA*e[5mC]*eA*eG*eA) [compound 145659] | 15
12 | 145660 (antisense eT*eG*eT*eG*eG*dA*dG*d[5mC]*dT*d[5mC]*d[5mC]*dA*dT*dG*dA*eG*eA*eA*eG*eA) [compound 145660] | 40
13 | 145661 (antisense eA*e[5mC]*e[5mC]*eA*eA*dG*dG*dA*dG*d[5mC]*dA*dG*d[5mC]*dA*dA*eA*eG*eG*e[5mC]*eT) [compound 145661] | 25
14 | 145663 (antisense eT*eT*eG*eA*e[5mC]*dA*dA*d[5mC]*dA*d[5mC]*dA*dG*d[5mC]*d[5mC]*d[5mC]*eA*e[5mC]*e[5mC]*eA*eA) [compound 145663] | 48
15 | 145665 (antisense e[5mC]*e[5mC]*eA*eG*e[5mC]*d[5mC]*dA*dG*dG*dT*dT*d[5mC]*dA*dT*dG*e[5mC]*eT*eG*eG*eT) [compound 145665] | 22
16 | 145666 (antisense eA*eA*eG*eA*eT*dA*dG*dG*dT*d[5mC]*d[5mC]*d[5mC]*dA*dA*dA*e[5mC]*eT*eT*e[5mC]*e[5mC]) [compound 145666] | 28
17 | 145669 (antisense e[5mC]*eA*e[5mC]*eA*eG*dT*dG*d[5mC]*d[5mC]*d[5mC]*d[5mC]*dA*dG*dA*d[5mC]*eA*eG*eG*eG*e[5mC]) [compound 145669] | 9

Row | Substance | % Inhib of mouse glucose-6-phosphatase translocase mRNA levels [%]
18 | 145672 (antisense eT*eG*eT*eG*eG*dA*dT*dG*dA*dG*d[5mC]*dA*dG*d[5mC]*dA*eG*eA*e[5mC]*eA*eG) [compound 145672] | 8
19 | 145674 (antisense e[5mC]*eA*eG*e[5mC]*eA*dG*dG*dT*dT*d[5mC]*dA*dT*dT*dG*dT*eG*eG*eA*eT*eG) [compound 145674] | 43
20 | 145675 (antisense eA*eA*e[5mC]*eA*eT*d[5mC]*dA*dG*d[5mC]*dA*dG*dG*dT*dT*d[5mC]*eA*eT*eT*eG*eT) [compound 145675] | 23
21 | 145676 (antisense GAGTCCAACATCAGCAGGTTCA; 2'-MOE gapmer, further chemistry not given here) [compound 145676] | 51
22 | 145677 (antisense e[5mC]*eT*eT*e[5mC]*eT*dT*dG*d[5mC]*d[5mC]*d[5mC]*dT*d[5mC]*dA*dG*dA*eG*eG*eG*e[5mC]*eA) [compound 145677] | 9
23 | 145678 (antisense eG*eA*eG*e[5mC]*e[5mC]*d[5mC]*dT*dT*d[5mC]*dT*dT*dG*d[5mC]*d[5mC]*d[5mC]*eT*e[5mC]*eA*eG*eA) [compound 145678] | 60
24 | 145679 (antisense eT*e[5mC]*eA*eA*eG*dG*dA*dG*d[5mC]*d[5mC]*d[5mC]*dT*dT*d[5mC]*dT*eT*eG*e[5mC]*e[5mC]*e[5mC]) [compound 145679] | 17
25 | 145680 (antisense e[5mC]*eT*e[5mC]*e[5mC]*eT*dT*d[5mC]*dA*dA*dG*dG*dA*dG*d[5mC]*d[5mC]*e[5mC]*eT*eT*e[5mC]*eT) [compound 145680] | 0
26 | 145681 (antisense e[5mC]*eT*e[5mC]*eT*e[5mC]*d[5mC]*dT*d[5mC]*d[5mC]*dT*dT*d[5mC]*dA*dA*dG*eG*eA*eG*e[5mC]*e[5mC]) [compound 145681] | 36
27 | 145682 (antisense eG*eG*eG*eT*eG*d[5mC]*dT*d[5mC]*dT*d[5mC]*d[5mC]*dT*d[5mC]*d[5mC]*dT*eT*e[5mC]*eA*eA*eG) [compound 145682] | 31
28 | 145683 (antisense e[5mC]*eA*eG*e[5mC]*eT*d[5mC]*d[5mC]*dT*dG*dT*dA*dG*dG*dG*dT*eG*e[5mC]*eT*e[5mC]*eT) [compound 145683] | 0
29 | 145684 (antisense eT*e[5mC]*eT*eT*eT*dA*d[5mC]*dT*d[5mC]*d[5mC]*dG*dA*dA*dG*dA*e[5mC]*e[5mC]*eA*e[5mC]*eA) [compound 145684] | 43
30 | 145687 (antisense e[5mC]*eT*e[5mC]*e[5mC]*eT*dG*dG*dA*dT*dA*dA*dG*dG*dA*dA*eG*eA*eA*e[5mC]*eT) [compound 145687] | 12
31 | 145688 (antisense eA*e[5mC]*eT*eG*e[5mC]*d[5mC]*d[5mC]*dT*d[5mC]*dT*d[5mC]*dT*d[5mC]*d[5mC]*dT*eG*eG*eA*eT*eA) [compound 145688] | 25
32 | 145689 (antisense e[5mC]*eA*eA*eG*eG*dG*d[5mC]*dG*dG*dA*d[5mC]*dT*dG*d[5mC]*d[5mC]*e[5mC]*eT*e[5mC]*eT*e[5mC]) [compound 145689] | 34
33 | 145690 (antisense e[5mC]*eT*e[5mC]*e[5mC]*eG*dA*d[5mC]*d[5mC]*dT*d[5mC]*dG*dA*dG*dG*dG*e[5mC]*eA*e[5mC]*eT*eG) [compound 145690] | 56
